Values of other authors as cited in PubChem BioAssay AID1259410 (Chemical Carcinogenesis Research Information System (CCRIS), 2018).

Tested on: rodent tumor promotion studies, tumor incidence
Assay: CCRIS tumor promotion studies

Q: For CCCCC(CC)COC(=O)c1ccccc1C(=O)OCC(CC)CCCC (stereo not drawn), which outcome (Carcinogen: DIETHYLNITROSAMINE [55-18-5], Doses [Carcinogen]: 200 MG/KG BW ONCE (STUDY DURATION: 48 WK), Doses [Promoter]: 0, 30, 300, 3000, 12000 PPM IN DIET FOR 46 WK BEGINNING 2 WK POST CARCINOGEN DOSE AND 1 WK PRIOR TO 2/3 PARTIAL HEPATECT, Doses [Promoter]: 0, 30, 300, 3000, 12000 PPM IN DIET FOR 46 WK BEGINNING 2 WK POST CARCINOGEN DOSE AND 1 WK PRIOR TO 2/3 PARTIAL HEPATECT, Route [Carcinogen]: INTRAPERITONEAL, Route [Promoter]: ORAL, Species: RAT, Strain/Sex: F344/MALE) is on record?
A: liver: hepatocellular adenoma

Q: And the outcome (Carcinogen: DIETHYLNITROSAMINE [55-18-5], Doses [Carcinogen]: 200 MG/KG BW ONCE (STUDY DURATION: 52 WK), Doses [Promoter]: 0, 30, 300, 3000, 12000 PPM IN DIET FOR 46 WK BEGINNING 2 WK POST CARCINOGEN DOSE AND 1 WK PRIOR TO 2/3 PARTIAL HEPATECT, Doses [Promoter]: 0, 30, 300, 3000, 12000 PPM IN DIET FOR 46 WK BEGINNING 2 WK POST CARCINOGEN DOSE AND 1 WK PRIOR TO 2/3 PARTIAL HEPATECT, Route [Carcinogen]: INTRAPERITONEAL, Route [Promoter]: ORAL, Species: RAT, Strain/Sex: F344/MALE)?
A: liver: hepatocellular adenoma or carcinoma

Q: What about the outcome (Carcinogen: N-ETHYL-N-HYDROXYETHYLNITROSAMINE, 13147-25-6, Doses [Carcinogen]: 0.05% IN DRINKING WATER FOR 2 WK, Doses [Promoter]: 0, 1.2% IN DIET FOR 24 WK POST CARCINOGEN DOSE (STUDY DURATION: 27 WK), Route [Carcinogen]: ORAL, Species: RAT, Strain/Sex: F344/MALE) of the same compound?
A: kidney: renal cell tumor

Q: And the outcome (Carcinogen: N-NITROSODIETHYLAMINE, 55-18-5, Doses [Carcinogen]: 5 UG/G BW ONCE AT 15 D OF AGE, Doses [Promoter]: 0, 12000 PPM IN DIET BEGINNING AT 4 WK OF AGE AND CONTINUING FOR DURATION OF STUDY (STUDY DURATION: 28 WK), Route [Carcinogen]: INTRAPERITONEAL, Route [Promoter]: ORAL, Species: MOUSE, Strain/Sex: C3H/HENCR/FEMALE)?
A: liver: hepatocellular adenoma

Q: What about the outcome (Carcinogen: N-NITROSODIETHYLAMINE, 55-18-5, Doses [Carcinogen]: 5 UG/G BW ONCE AT 15 D OF AGE, Doses [Promoter]: 0, 12000 PPM IN DIET BEGINNING AT 4 WK OF AGE AND CONTINUING FOR DURATION OF STUDY (STUDY DURATION: 28 WK), Route [Carcinogen]: INTRAPERITONEAL, Route [Promoter]: ORAL, Species: MOUSE, Strain/Sex: C3H/HENCR/MALE) of the same compound?
A: liver: hepatocellular adenoma

Q: What about the outcome (Carcinogen: N-NITROSODIETHYLAMINE, 7119-92-8, Doses [Carcinogen]: 80 MG/KG ONCE, Doses [Promoter]: 0, 3000 PPM IN DIET BEGINNING 1 WK POST CARCINOGEN DOSE AND CONTINUING FOR 168 D (STUDY DURATION: 259 D), Route [Carcinogen]: INTRAPERITONEAL, Route [Promoter]: ORAL, Species: MOUSE, Strain/Sex: B6C3F1/MALE) of the same compound?
A: liver: hepatocellular adenoma

Q: With COS(C)(=O)=O as the compound, how does the outcome (Carcinogen: N-METHYL-N-NITROSOUREA, 684-93-5, Doses [Carcinogen]: 0.3 MG IN CITRIC ACID PHOSPHATE BUFFER ONCE FOR 30 MIN, Doses [Promoter]: 0, 2.5 MG IN BUFFER 1/2 WK FOR 12 WK BEGINNING 14 D POST CARCINOGEN (STUDY DURATION: 2 YR), Route [Carcinogen]: INTRAVESICULAR, Route [Promoter]: INTRAVESICULAR, Species: RAT, Strain/Sex: F344/FEMALE) read?
A: bladder: papillary transitional cell carcinoma

Q: For O=S1(=O)N=C(O)c2ccccc21, which outcome (Carcinogen: N-[4-(5-NITRO-2-FURYL)-2-THIAZOLYL]FORMAMIDE, 24554-26-5, Doses [Carcinogen]: 0.2% IN DIET FOR 6 WK, Doses [Promoter]: 0, 3.12% IN PROLAB DIET FOR 72 WK BEGINNING POST CARCINOGEN TREATMENT (STUDY DURATION: 78 WK), Route [Carcinogen]: ORAL, Route [Promoter]: ORAL, Species: RAT, Strain/Sex: F344/MALE) is on record?
A: urinary bladder: carcinoma

Q: And the outcome (Carcinogen: N-[4-(5-NITRO-2-FURYL)-2-THIAZOLYL]FORMAMIDE, 24554-26-5, Doses [Carcinogen]: 0.2% IN DIET FOR 6 WK, Doses [Promoter]: 0, 5.2% IN PROLAB DIET FOR 72 WK BEGINNING POST CARCINOGEN TREATMENT (STUDY DURATION: 78 WK), Route [Carcinogen]: ORAL, Route [Promoter]: ORAL, Species: RAT, Strain/Sex: F344/MALE)?
A: urinary bladder: carcinoma, carcinoma or papilloma

Q: With CCCCCCCCCCCC1(CCCC(=O)OC2C(C)C3(O)C(C=C(CO)CC4(O)C(=O)C(C)=CC43)C3C(C)(C)C23OC(C)=O)OCC(C)(C)N1[O] (stereo not drawn) as the compound, how does the outcome (Carcinogen: 7,12-DIMETHYLBENZ[A]ANTHRACENE, 57-97-6, Doses [Carcinogen]: 100 NMOL ONCE, Doses [Promoter]: 0, 5 NMOL 2/WK FOR 24 WK BEGINNING 1 WK POST CARCINOGEN DOSE (STUDY DURATION: 25 WK), Route [Carcinogen]: DERMAL, Route [Promoter]: DERMAL, Species: MOUSE, Strain/Sex: NMRI/FEMALE) read?
A: skin: tumor

Q: With O=C(O)/C=C/c1ccc(O)c(O)c1 as the compound, how does the outcome (Carcinogen: DIETHYLNITROSAMINE, 55-18-5, N-METHYLNITROSOUREA, 684-93-5, 1,2-DIMETHYLHYDRAZINE, 540-73-8, N-BUTYL-N-(4-HYDROXYBUTYL)N, Carcinogen: DIETHYLNITROSAMINE, 55-18-5, N-METHYLNITROSOUREA, 684-93-5, 1,2-DIMETHYLHYDRAZINE, 540-73-8, N-BUTYL-N-(4-HYDROXYBUTYL)N, Doses [Carcinogen]: 100 MG/KG BW DEN ONCE FOLLOWED BY 20 MG/KG BW MNU 2/WK FOR 2 WK THEN 40 MG/KG BW DMH 2/WK FOR THE NEXT 2WK, 0.05% BBN IN, Doses [Promoter]: 0, 0.4% IN DIET FOR 24 WK BEGINNING POST CARCINOGEN TREATMENT (STUDY DURATION: 28 WK), Route [Carcinogen]: INTRAPERITONEAL, INTRAPERITONEAL, SUBCUTANEOUS, ORAL, Route [Carcinogen]: INTRAPERITONEAL, INTRAPERITONEAL, SUBCUTANEOUS, ORAL, Route [Promoter]: ORAL, Species: RAT, Strain/Sex: F344/MALE) read?
A: forestomach: papilloma

Q: And the outcome (Carcinogen: N-METHYL-N'-NITRO-N-NITROSOGUANIDINE, 70-25-7, Doses [Carcinogen]: 150 MG/KG BW IN 50% DMSO ONCE, Doses [Promoter]: 1% IN DIET BEGINNING 1 WK POST CARCINOGEN TREATMENT FOR 51 WK (STUDY DURATION: 52 WK), Route [Carcinogen]: GAVAGE, Route [Promoter]: ORAL, Species: RAT, Strain/Sex: F344/MALE)?
A: forestomach: papilloma, squamous cell carcinoma

Q: What does the source list for Nc1ccc(Cc2ccc(N)cc2)cc1?
A: outcome (Carcinogen: 2,2'-DIHYDROXY-N-NITROSODIPROPYLAMINE, 53609-64-6, Doses [Carcinogen]: 280 MG/100 G IN 0.5 ML SALINE ONCE, Doses [Promoter]: 0, 1000 PPM IN DIET FOR 19 WK (STUDY DURATION: 19 WK), Route [Carcinogen]: INTRAPERITONEAL, Route [Promoter]: ORAL, Species: RAT, Strain/Sex: WISTAR/MALE): thyroid: tumor; outcome (Carcinogen: N-BIS(2-HYDROXYPROPYL)NITROSAMINE, 53609-64-6, N-ETHYL-N-HYDROXYETHYLNITROSAMINE, 13147-25-6, 3,2'-DIMETHYL-4-AMINOB, Carcinogen: N-BIS(2-HYDROXYPROPYL)NITROSAMINE, 53609-64-6, N-ETHYL-N-HYDROXYETHYLNITROSAMINE, 13147-25-6, 3,2'-DIMETHYL-4-AMINOB, Doses [Carcinogen]: 1000 MG/KG IP IN SALINE ON DAY 1 AND 4, 1500 MG/KG IG IN DISTILLED WATER ON DAY 8 AND 11, 75 MG/KG SC IN CORN OIL ON D, Doses [Carcinogen]: 1000 MG/KG IP IN SALINE ON DAY 1 AND 4, 1500 MG/KG IG IN DISTILLED WATER ON DAY 8 AND 11, 75 MG/KG SC IN CORN OIL ON D, Doses [Promoter]: 0, 0.1% IN DIET BEGINNING 1 WK POST LAST CARCINOGEN DOSE AND CONTINUING FOR 12 WK (STUDY DURATION: 16 WK), Route [Carcinogen]: INTRAPERITONEAL, GAVAGE, SUBCUTANEOUS, Route [Carcinogen]: INTRAPERITONEAL, GAVAGE, SUBCUTANEOUS, Route [Promoter]: ORAL, Species: RAT, Strain/Sex: F344/MALE): thyroid: adenoma, adenocarcinoma

Q: Which outcome (Carcinogen: P-DIMETHYLAMINOAZOBENZENE [60-11-7], Doses [Carcinogen]: 0.5% IN DIET FOR 28 WK (STUDY DURATION: 20 WK), Doses [Promoter]: 0, 0.025% IN DIET FOR 25 WK BEGINNING 3 WK POST FIRST CARCINOGEN DOSE (STUDY DURATION: 28 WK), Route [Carcinogen]: ORAL, Route [Promoter]: ORAL, Species: MOUSE, Strain/Sex: CF-1/MALE) does the source give for CC/C(=C(\c1ccccc1)c1ccc(OCCN(C)C)cc1)c1ccccc1 here?
A: liver: hepatocellular carcinoma

Q: For CCCCCCCC/C=C\CCCCCCCC(=O)O, which outcome (Carcinogen: 7,12-DIMETHYLBENZ(A)ANTHRACENE, Doses [Carcinogen]: TOP, Route [Carcinogen]: DERMAL, Route [Promoter]: DERMAL, Species: MOUSE, Strain/Sex: MALE,FEMALE) is on record?
A: integumentary system (skin)

Q: Which outcome (Carcinogen: 7,12-DIMETHYLBENZ(A)ANTHRACENE, Doses [Carcinogen]: TOP, Route [Carcinogen]: DERMAL, Route [Promoter]: DERMAL, Species: MOUSE, Strain/Sex: FEMALE) does the source give for Cc1ccc(O)c(C)c1 here?
A: integumentary system (skin)

Q: With COC[C@@H]([C@H](O)[C@H](O)C(=O)NCC[C@H](C)c1nc(/C=C/C[C@@H]2O[C@]3(C[C@@H](O)[C@@H]2C)O[C@H]([C@H](C[C@H](O)[C@H](C)[C@H](O)[C@H](C)/C=C(C)/C(C)=C/C=C/C(C)=C\C#N)OC)[C@H](OP(=O)(O)O)C3(C)C)co1)N(C)C as the compound, how does the outcome (Carcinogen: 7,12-DIMETHYLBENZ[A]ANTHRACENE, 57-97-6, Doses [Carcinogen]: 100 UG IN 0.1 ML ACETONE TO THE DORSAL SKIN ONCE, Doses [Promoter]: 0, 0.1, 1 UG IN 0.1 ML ACETONE TO THE DORSAL SKIN 2/WK FOR 29 WK BEGINNING 1 WK POST CARCINOGEN DOSE (STUDY DURATION: 30, Doses [Promoter]: 0, 0.1, 1 UG IN 0.1 ML ACETONE TO THE DORSAL SKIN 2/WK FOR 29 WK BEGINNING 1 WK POST CARCINOGEN DOSE (STUDY DURATION: 30, Route [Carcinogen]: DERMAL, Route [Promoter]: DERMAL, Species: MOUSE, Strain/Sex: CD-1/FEMALE) read?
A: skin: papilloma
